Experimental data: patent US9593305B2, “Differentiation of pluripotent stem cells” (Janssen Biotech, Inc., priority 2008, dated 2017)

Tested on: H1 human embryonic stem cells
Test: Compounds and growth factors with low dose activin A (Example 9, Table 9)
Assay type: cell-based
Experimental: Clusters of H1 human embryonic stem cells were grown on reduced growth factor […]™ (Invitrogen; Cat #356231)-coated tissue culture plastic. Cells were passaged using collagenase (Invitrogen; Cat #17104-019) treatment and gentle scraping, washed to remove residual enzyme, and plated with even dispersal at a ratio of 1:1 (surface area) on reduced growth factor […]™-coated 96-well black plates (Packard ViewPlates; PerkinElmer; Cat #6005182) using volumes of 100 μl/well. Cells were allowed to attach as clusters and then recover log phase growth over a 1 to 3 day period, feeding daily with MEF conditioned medium supplemented with 8 ng/ml bFGF (R&D Systems; Cat #233-FB). Plates were maintained at 37° C., 5% CO2 in a humidified box throughout the duration of assay.
Stocks of growth factors purchased from R&D Systems were EGF (Cat #236-EG), FGF4 (Cat #235-F4), PDGF-A (Cat #221-AA), PDGF-D (Cat #1159-SB), PDGF-A/B (Cat #222-AB), VEGF (Cat #293-VE), and GDF-8 (Cat #788-08). Activin A was purchased from PeproTech (Cat #). Muscimol was purchased from Tocris (Cat #0289). All growth factors were solubilized in PBS with 0.1% BSA (Sigma; Cat #A7888) and stored frozen at −80° C. Muscimol was solubilized in 100% DMSO (Sigma; Cat #D2650) and stored frozen at −80° C. The compounds were available as 5 mM stocks in 96-well plate format, solubilized in 100% DMSO and stored at −80° C. The compounds were further diluted to an intermediate concentration of 0.2 mM in 50 mM HEPES (Invitrogen; Cat #15630-080), 20% DMSO and stored at 4° C. All growth factors and inhibitors were prepared in a deep well, 96-well polypropylene plate, diluted to 5× intermediate stocks in DMEM:F12 base medium at the beginning of assay and stored at 4° C.
A secondary screening assay was conducted, testing in triplicate and feeding on alternate days over the four-day assay timeframe. Assays were initiated by aspirating culture medium from each well followed by three washes in PBS to remove residual growth factors and serum. Test volumes of 80 μl per well were added back containing DMEM:F12 base medium (Invitrogen; Cat #11330-032) supplemented with 0.625% FCS (HyClone; Cat #SH30070.03), 25 ng/ml Wnt3a (R&D Systems), 12.5 ng/ml activin A, and 3.125 μM compound plus 20 μl 5× stock of growth factor or small molecule to yield a final concentration of 0.5% FCS, 20 ng/ml Wnt3a, 10 ng/ml activin A, and 2.5 μM compound. All remaining growth factors were tested at a final assay concentration of 50 ng/ml (EGF, FGF4, PDGF-A, PDGF-A/B, VEGF), with the exception of GDF-8 used at 25 ng/ml. Final assay concentration of muscimol was 20 μM. Positive control wells (100 μl/well) contained the same base medium supplemented with 0.5% FCS, 20 ng/ml Wnt3a and 10 ng/ml (low dose) or 100 ng/ml (high dose) activin A. Negative control wells (100 μl/well) contained the same base medium with 0.5% FCS and 20 ng/ml Wnt3a, omitting activin A.
Positive control wells (100 μl/well) contained the same base medium supplemented with 2% FCS and 10 ng/ml or 100 ng/ml activin A, omitting Wnt3a. Negative control wells (100 μl/well) contained the same base medium with 2% FCS, omitting both activin A and Wnt3a.
At the conclusion of four-days of culture, assay plates were washed twice with PBS, fixed with 4% paraformaldehyde (Alexis Biochemical; Cat #ALX-350-011) at room temperature for 20 minutes, then washed three times with PBS and permeabilized with 0.5% Triton X-100 (Sigma; Cat #T8760-2) for 20 minutes at room temperature. Cells were washed again three times with PBS and blocked with 4% chicken serum (Invitrogen; Cat #16110082) in PBS for 30 minutes at room temperature. Primary antibody (goat anti-human SOX17; R&D Systems; cat #AF1924) was diluted 1:100 in 4% chicken serum and added to each well for one hour at room temperature. […]

[1] = 10 ng/ml AA + compound + EGF + FGF4 + PDGF-A + Muscimol + Wnt3a
[2] = 10 ng/ml AA + compound + EGF + FGF4 + PDGF-A + VEGF + PDGF-D + Muscimol + GDF8 + Wnt3a
[3] = 10 ng/ml AA + compound + EGF + FGF4 + PDGF-AB + VEGF + Wnt3a
[4] = 10 ng/ml AA + compound + EGF + FGF4 + PDGF-AB + Wnt3a
[5] = 10 ng/ml AA + compound + EGF + FGF4 + Wnt3a
[6] = 10 ng/ml AA + compound + EGF + Wnt3a
[7] = 10 ng/ml AA + compound + FGF4 + Wnt3a

Structure (SMILES) | Cell Number, % of positive control [1] | Cell Number, Average Total Cell Number [1] | Sox17 Expression, % of positive control [1] | Sox17 Expression, Average Total Intensity [1] | Cell Number, % of positive control [2] | Cell Number, Average Total Cell Number [2] | Sox17 Expression, % of positive control [2] | Sox17 Expression, Average Total Intensity [2] | Cell Number, % of positive control [3] | Cell Number, Average Total Cell Number [3] | Sox17 Expression, % of positive control [3] | Sox17 Expression, Average Total Intensity [3] | Cell Number, % of positive control [4] | Cell Number, Average Total Cell Number [4] | Sox17 Expression, % of positive control [4] | Sox17 Expression, Average Total Intensity [4] | Cell Number, % of positive control [5] | Cell Number, Average Total Cell Number [5] | Sox17 Expression, % of positive control [5] | Sox17 Expression, Average Total Intensity [5] | other results
O=C1NCCCc2cncc(c2)-c2ncnc(n2)Nc2cccc(c2)CN2CCC1CC2 [Compound 22, 1,8,10,12,16,22,30-Heptaazapentacyclo[22.2.2.1-3,7˜0.1˜9,13˜1-14,18˜]hentriaconta-3(31), 4,6,9(30), 10,12,14(29), 15,17-nonaen-23-one] | 132.10 % of positive control | 8100 | 38.65 % of positive control | 4.42E+07 | 139.53 % of positive control | 8556 | 76.82 % of positive control | 8.78E+07 | 124.87 % of positive control | 7657 | 41.09 % of positive control | 4.70E+07 | 130.06 % of positive control | 7975 | 30.03 % of positive control | 3.43E+07 | 159.83 % of positive control | 9800 | 40.13 % of positive control | 4.59E+07 | Cell Number, % of positive control [6]: 81.55 % of positive control; Cell Number, Average Total Cell Number [6]: 5001; Sox17 Expression, % of positive control [6]: 24.45 % of positive control; Sox17 Expression, Average Total Intensity [6]: 2.80E+07; Cell Number, % of positive control [7]: 105.84 % of positive control; Cell Number, Average Total Cell Number [7]: 6490; Sox17 Expression, % of positive control [7]: 37.43 % of positive control; Sox17 Expression, Average Total Intensity [7]: 4.28E+07; Cell Number, % of positive control (10 ng/ml AA + compound + Wnt3a): 74.09 % of positive control; Cell Number, Average Total Cell Number (10 ng/ml AA + compound + Wnt3a): 4543; Sox17 Expression, % of positive control (10 ng/ml AA + compound + Wnt3a): 26.65 % of positive control; Sox17 Expression, Average Total Intensity (10 ng/ml AA + compound + Wnt3a): 3.05E+07
CCN1CCCc2cccc(c2)-c2ncnc(n2)Nc2cccc(c2)CCNC(=O)C1 [Compound 29, 18-Ethyl-3,5,7,15,18,28-hexaazatetracyclo[20.3.1.1˜2,6˜0.1˜8,12˜]octacosa-1(26), 2(28), 3,5,8(27), 9,11,22,24-nonaen-16-one] | 76.26 % of positive control | 4676 | 21.11 % of positive control | 2.41E+07 | 44.63 % of positive control | 2737 | 21.10 % of positive control | 2.41E+07 | 37.23 % of positive control | 2283 | 4.88 % of positive control | 5.59E+06 | 64.65 % of positive control | 3964 | 19.89 % of positive control | 2.27E+07 | 28.31 % of positive control | 1736 | 1.73 % of positive control | 1.98E+06 | Cell Number, % of positive control [6]: 5.96 % of positive control; Cell Number, Average Total Cell Number [6]: 365; Sox17 Expression, % of positive control [6]: −4.25 % of positive control; Sox17 Expression, Average Total Intensity [6]: −4.86E+06; Cell Number, % of positive control [7]: 34.89 % of positive control; Cell Number, Average Total Cell Number [7]: 2139; Sox17 Expression, % of positive control [7]: 6.10 % of positive control; Sox17 Expression, Average Total Intensity [7]: 6.98E+06; Cell Number, % of positive control (10 ng/ml AA + compound + Wnt3a): 34.09 % of positive control; Cell Number, Average Total Cell Number (10 ng/ml AA + compound + Wnt3a): 2090; Sox17 Expression, % of positive control (10 ng/ml AA + compound + Wnt3a): 4.28 % of positive control; Sox17 Expression, Average Total Intensity (10 ng/ml AA + compound + Wnt3a): 4.89E+06
